These results are taken from patent US7517874B2 (priority 2007, dated 2009).

Usually EC50 stands for the concentration giving half of the maximal effect.

Test [1] concerns the target human CB1 receptor (hCB1) (Homo sapiens, UniProt P21554). Description: cell-based. In kind it is cell-based. To be noted: for +/− HCB1: agonist or inverse agonist at hCB1. The procedure, abridged: (§1)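 Readout: LANCE TR-FRET cAMP, back-calculated from a concurrent standard curve and scaled between forskolin-only and forskolin + 1 μM CP55,940 wells. EC50 and intrinsic activity came from four-parameter fits.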

The target in a further test is T1, rat CB2 receptor (rCB2) (Rattus norvegicus, UniProt Q9QZN9).
T1 sequence (Q9QZN9 1-360): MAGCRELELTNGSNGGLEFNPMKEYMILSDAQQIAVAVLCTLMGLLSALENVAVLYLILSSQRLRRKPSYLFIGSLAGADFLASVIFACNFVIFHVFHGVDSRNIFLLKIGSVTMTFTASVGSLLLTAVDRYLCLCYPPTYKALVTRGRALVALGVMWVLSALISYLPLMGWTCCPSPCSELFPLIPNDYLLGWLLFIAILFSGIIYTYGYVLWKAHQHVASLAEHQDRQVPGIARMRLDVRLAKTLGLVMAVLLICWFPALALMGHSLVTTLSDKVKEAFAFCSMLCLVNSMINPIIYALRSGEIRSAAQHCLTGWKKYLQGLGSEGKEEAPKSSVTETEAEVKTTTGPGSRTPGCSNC
Description: cell-based. Format: cell-based. To be noted: for +/− RCB2: agonist or inverse agonist at rCB2. The procedure, abridged: as §1

For another test, the system named is rats. As to the kind of experiment: Spinal nerve ligation (SNL) model of neuropathic pain. To be noted: rat, oral 3, 10 and 30 mg/kg, FIG. 4. Format: in vivo. On the procedure: The SNL model (Kim and Chung 1992) was used to induce chronic neuropathic pain in rats. The rats were anesthetized with isoflurane, the left L5 transverse process was removed, and the L5 and L6 spinal nerves were tightly ligated with 6-0 silk suture. The wound was then closed with internal sutures and external staples. Following at least seven days post SNL, baseline, post-injury and post-treatment values for non-noxious mechanical sensitivity were evaluated using eight Semmes-Weinstein filaments (Stoelting, Wood Dale, Ill., USA) with varying stiffness (0.4, 0.7, 1.2, 2.0, 3.6, 5.5, 8.5, and 15 g) according to the up-down method (Chaplan et al. 1994). Animals were placed on a perforated metallic platform and allowed to acclimate to their surroundings for a minimum of thirty minutes before testing. The mean and standard error of the mean (SEM) were determined for the injured paw in each treatment group. Since this stimulus is normally not considered painful, significant injury-induced increases in responsiveness in this test are interpreted as a measure of mechanical allodynia. The dose which elicited 50% attenuation of mechanical hypersensitivity (ED50) was determined using linear regression analysis. Results obtained after oral administration of compound 317 at 3, 10 and 30 mg/kg and with compound 366 at 1, 3 and 10 mg/kg are shown in FIG. 4.

Like-named read-outs stand apart in the source and are kept apart here.

human CB1 receptor (hCB1), sequence (P21554 whole entry): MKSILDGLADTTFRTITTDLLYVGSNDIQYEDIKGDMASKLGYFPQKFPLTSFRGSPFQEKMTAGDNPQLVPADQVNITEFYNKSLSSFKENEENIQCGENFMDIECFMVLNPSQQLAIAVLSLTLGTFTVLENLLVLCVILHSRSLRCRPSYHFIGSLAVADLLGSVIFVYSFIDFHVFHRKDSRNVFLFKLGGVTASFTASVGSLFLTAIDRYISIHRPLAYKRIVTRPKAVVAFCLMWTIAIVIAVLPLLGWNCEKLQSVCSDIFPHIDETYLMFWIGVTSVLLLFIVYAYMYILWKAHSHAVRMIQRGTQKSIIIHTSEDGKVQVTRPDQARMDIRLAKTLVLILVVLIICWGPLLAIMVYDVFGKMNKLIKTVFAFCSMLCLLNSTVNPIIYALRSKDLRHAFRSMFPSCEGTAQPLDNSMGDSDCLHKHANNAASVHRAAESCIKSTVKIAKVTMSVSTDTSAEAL

For `CNC(=O)[C@@H](NC(=O)c1nc(-c2ccccc2)n2c1CN(C)CCC2)C(C)(C)C` [Compound 317, (S)-N-(3,3-dimethyl-1-(methylamino)-1-oxobutan-2-yl)-8-methyl-3-phenyl-6,7,8,9-tetrahydro-5H-imidazo[1,5-a][1,4]diazepine-1-carboxamide], the EC50 in test [1] is over 10000 nM. Besides, on rat CB2 receptor (rCB2), the “+/− RCB2” value is listed as “+”. Moreover, in the test on rats, the “effect in the neuropathic pain model” value is on record as “dose response in the neuropathic pain model”.
Consider `CNC(=O)[C@@H](NC(=O)c1nc(-c2ccc(Cl)cc2F)n2c1CN(C)CCC2)C(C)(C)C` [Compound 366, (S)-3-(4-chloro-2-fluorophenyl)-N-(3,3-dimethyl-1-(methylamino)-1-oxobutan-2-yl)-8-methyl-6,7,8,9-tetrahydro-5H-imidazo[1,5-a][1,4]diazepine-1-carboxamide], for which the “+/− HCB1” value in test [1] is recorded as “+”. Besides, the “+/− RCB2” value on rat CB2 receptor (rCB2) was “+”. Besides, in the test with rats, the “effect in the neuropathic pain model” value is on record as “dose response in the neuropathic pain model”.
As for `CNC(=O)[C@H](Cc1cscn1)NC(=O)c1nc(-c2cc(F)c(F)cc2F)n2c1CN(C)CCC2` [Compound 592, (S)-8-methyl-N-(1-(methylamino)-1-oxo-3-(thiazol-4-yl)propan-2-yl)-3-(2,4,5-trifluorophenyl)-6,7,8,9-tetrahydro-5H-imidazo[1,5-a][1,4]diazepine-1-carboxamide], the EC50 (in test [1]; at rat CB2 receptor (rCB2)) was over 10000 nM each time.
With `CNC(=O)[C@H](Cc1cscn1)NC(=O)c1nc(-c2cc(Cl)c(F)cc2F)n2c1CN(C)CCC2` [Compound 593, (S)-3-(5-chloro-2,4-difluorophenyl)-8-methyl-N-(1-(methylamino)-1-oxo-3-(thiazol-4-yl)propan-2-yl)-6,7,8,9-tetrahydro-5H-imidazo[1,5-a][1,4]diazepine-1-carboxamide], in test [1], the “+/− HCB1” value was “+”. Also, the “+/− RCB2” value on rat CB2 receptor (rCB2) is listed as “+”.
Turning to `CNC(=O)[C@@H](NC(=O)c1nc(C2=CCOCC2)n2c1CN(C)CCC2)C(C)(C)C` [Compound 594, (S)-3-(3,6-dihydro-2H-pyran-4-yl)-N-(3,3-dimethyl-1-(methylamino)-1-oxobutan-2-yl)-8-methyl-6,7,8,9-tetrahydro-5H-imidazo[1,5-a][1,4]diazepine-1-carboxamide], in test [1], the “+/− HCB1” value is given as “+”. Besides, the “+/− RCB2” value on rat CB2 receptor (rCB2) is “+”.
For the compound `CN1CCCn2c(-c3ccccc3)nc(C(=O)Nc3cc(C(C)(C)C)on3)c2C1` [Compound 595, N-(5-tert-butylisoxazol-3-yl)-8-methyl-3-phenyl-6,7,8,9-tetrahydro-5H-imidazo[1,5-a][1,4]diazepine-1-carboxamide], the EC50 in test [1] was over 10000 nM. Besides, on rat CB2 receptor (rCB2), the “+/− RCB2” value is “−”.
In the case of `CN1CCCn2c(-c3ccccc3)nc(C(=O)Nc3nc(C(C)(C)C)cs3)c2C1` [Compound 596, N-(4-tert-butylthiazol-2-yl)-8-methyl-3-phenyl-6,7,8,9-tetrahydro-5H-imidazo[1,5-a][1,4]diazepine-1-carboxamide], the concentration for a half-maximal effect (EC50) is over 10000 nM in test [1] (groups >100 nM-10 μM and >10 μM, cAMP, CHO-K1 hCB1, read-out: EC50 HCB1); over 10000 nM at rat CB2 receptor (rCB2) (groups >100 nM-10 μM and >10 μM, cAMP, CHO-K1 rCB2, read-out: EC50 RCB2).
With `CNC(=O)[C@@H](NC(=O)c1nc(Cl)n2c1CNCCC2)C(C)(C)C` [Compound 597, (S)-3-chloro-N-(3,3-dimethyl-1-(methylamino)-1-oxobutan-2-yl)-6,7,8,9-tetrahydro-5H-imidazo[1,5-a][1,4]diazepine-1-carboxamide], the EC50 in test [1] is over 10000 nM. At rat CB2 receptor (rCB2), the “+/− RCB2” value was “+”.
For `CNC(=O)[C@@H](NC(=O)c1nc(Cl)n2c1CN(C)CCC2)C(C)(C)C` [Compound 598, (S)-3-chloro-N-(3,3-dimethyl-1-(methylamino)-1-oxobutan-2-yl)-8-methyl-6,7,8,9-tetrahydro-5H-imidazo[1,5-a][1,4]diazepine-1-carboxamide], in that order: over 10000 nM and “+”.
On to `CNC(=O)[C@@H](NC(=O)c1nc(-c2cc(C(F)(F)F)cc(C(F)(F)F)c2)n2c1CN(C)CCC2)C(C)(C)C` [Compound 599, (S)-3-(3,5-bis(trifluoromethyl)phenyl)-N-(3,3-dimethyl-1-(methylamino)-1-oxobutan-2-yl)-8-methyl-6,7,8,9-tetrahydro-5H-imidazo[1,5-a][1,4]diazepine-1-carboxamide], for which the EC50 (in test [1]; on rat CB2 receptor (rCB2)) was over 10000 nM throughout.
For the compound `CNC(=O)[C@@H](NC(=O)c1nc(-c2ccc(Br)cc2F)n2c1CN(C)CCC2)C(C)(C)C` [Compound 600, (S)-3-(4-bromo-2-fluorophenyl)-N-(3,3-dimethyl-1-(methylamino)-1-oxobutan-2-yl)-8-methyl-6,7,8,9-tetrahydro-5H-imidazo[1,5-a][1,4]diazepine-1-carboxamide], the “+/− HCB1” value in test [1] is recorded as “+”. Besides, the EC50 at rat CB2 receptor (rCB2) is over 10000 nM.
With `CNC(=O)[C@@H](NC(=O)c1nc(-c2c(F)cccc2F)n2c1CN(C)CCC2)C(C)(C)C` [Compound 601, (S)-3-(2,6-difluorophenyl)-N-(3,3-dimethyl-1-(methylamino)-1-oxobutan-2-yl)-8-methyl-6,7,8,9-tetrahydro-5H-imidazo[1,5-a][1,4]diazepine-1-carboxamide], in test [1], the “+/− HCB1” value is listed as “+”. Moreover, the “+/− RCB2” value on rat CB2 receptor (rCB2) is “+”.
Take `CNC(=O)[C@@H]1CCCN1C(=O)c1nc(-c2ccccc2)n2c1CNCCC2` [Compound 602]: in test [1], the “+/− HCB1” value was “−”. This compound also showed an EC50 at rat CB2 receptor (rCB2) of over 10000 nM.
For `CNC(=O)[C@@H]1CCCN1C(=O)c1nc(-c2ccccc2)n2c1CN(C)CCC2` [Compound 603, (S)-N-methyl-1-(8-methyl-3-phenyl-6,7,8,9-tetrahydro-5H-imidazo[1,5-a][1,4]diazepine-1-carbonyl)pyrrolidine-2-carboxamide], the EC50 (in test [1]; at rat CB2 receptor (rCB2)) was over 10000 nM each time.
`CNC(=O)C(NC(=O)c1nc(-c2ccccc2)n2c1CNCCC2)C(C)(C)F` (centres unmarked) [Compound 604, N-(3-fluoro-3-methyl-1-(methylamino)-1-oxobutan-2-yl)-3-phenyl-6,7,8,9-tetrahydro-5H-imidazo[1,5-a][1,4]diazepine-1-carboxamide] displayed an EC50 in test [1] of over 10000 nM. Moreover, on rat CB2 receptor (rCB2), the “+/− RCB2” value was “+”.
For `CNC(=O)C(NC(=O)c1nc(-c2ccccc2)n2c1CN(C)CCC2)C(C)(C)F` (centres unmarked) [Compound 605, N-(3-fluoro-3-methyl-1-(methylamino)-1-oxobutan-2-yl)-8-methyl-3-phenyl-6,7,8,9-tetrahydro-5H-imidazo[1,5-a][1,4]diazepine-1-carboxamide], in that order: over 10000 nM and “+”.
For `CNC(=O)[C@@H](NC(=O)c1nc(-c2ccccc2)n2c1CNCCC2)C(C)(C)O` [Compound 606, (S)-N-(3-hydroxy-3-methyl-1-(methylamino)-1-oxobutan-2-yl)-3-phenyl-6,7,8,9-tetrahydro-5H-imidazo[1,5-a][1,4]diazepine-1-carboxamide], in that order: over 10000 nM and “+”.
In test [1], `CNC(=O)[C@@H](NC(=O)c1nc(-c2ccccc2)n2c1CN(C)CCC2)C(C)(C)O` [Compound 607, (S)-N-(3-hydroxy-3-methyl-1-(methylamino)-1-oxobutan-2-yl)-8-methyl-3-phenyl-6,7,8,9-tetrahydro-5H-imidazo[1,5-a][1,4]diazepine-1-carboxamide] returned an EC50 of over 10000 nM. At rat CB2 receptor (rCB2), the “+/− RCB2” value is given as “+”.
